The text below walks through data of publication PMC7584369, “Di-bromo-Based Small-Molecule Inhibitors of the PD-1/PD-L1 Immune Checkpoint” (Journal of Medicinal Chemistry, 2020).

Where “and” joins values, the source holds several entries; their conditions need not be identical. Identical values can stand only once. Entries after “also recorded” stand apart in the source; their conditions may differ. Counter-ions that a name gives are not always drawn. Where only a bound is given, the exact number is not on record here.

Usually IC50 stands for the point on the concentration scale where inhibition reaches its midpoint. Broadly, the EC50 is the concentration that produces a half-maximal response. One may read the Kd as the concentration at which binding is half-saturated. A high value points to lower affinity.

For one data set, the target named is T1, N66A-PD-1/PD-L1 complex (Homo sapiens, UniProt Q9NZQ7).
T1 construct: hPD-L1 residues, 18–134, C-terminal His-tag; His-tag (C); made in house; host or cells: Escherichia coli BL21 (DE3)
The experiment in a line: w-AIDA-NMR (weak antagonist-induced dissociation assay). The data set is classed as binding. Conditions: equimolar concentrations. From the text: Because HTRF is prone to “false positives”, especially aggregators and autofluorophores, we validated the results using the w-AIDA-NMR assay developed by us. […] In the w-AIDA-NMR 2D experiment, ^15N mutated PD-1 gives a characteristic pattern of peaks (Figure 2A). Peak assignment is not necessary as we observe a relative change in the intensity and positions of the reference peaks upon the addition of ligand/inhibitors. Upon the formation of the complex with PD-L1, most of the cross-peaks in the ^1H–^15N HMQC spectrum of PD-1 became broader and less intense with some of the cross-peaks disappearing (Figure 2B). If the inhibitor is capable of disrupting the complex, the resulting spectrum should come back to the reference one of PD-1 alone, as tested inhibitors are PD-L1 binders. […]
Uniform ^15N labeling was obtained by expressing proteins in the M9 minimal medium containing ^15NH4Cl as the sole nitrogen source. […] All spectra were recorded at 300 K using a Bruker Avance III 600 MHz spectrometer equipped with the nitrogen cryoprobe. The ability of tested compounds to dissociate PD-L1/(wild type, wt or N66A)PD-1 was evaluated using the (weak) antagonist-induced dissociation assay (w-AIDA-NMR). […] During the experiment, the ^1H–^15N signals were monitored by SOFAST HMQC.

Another data set deals with T2, wtPD-1/PD-L1 complex (Homo sapiens, UniProt Q9NZQ7).
T2 construct: hPD-L1 residues, 18–134, C-terminal His-tag; His-tag (C); made in house; host or cells: Escherichia coli BL21 (DE3)
The experiment in a line: AIDA-NMR with wild-type proteins. Conditions: wild-type PD-1. The data set is classed as binding.

Data set [1] addresses T3, PD-1/PD-L1 complex (hPD-L1 and hPD-1) (Homo sapiens, UniProt Q9NZQ7).
T3 construct: purchased Cis-Bio
The experiment in a line: Homogeneous time-resolved fluorescence (HTRF) assay, Cis-Bio kit. The class given is binding. Background: TR-FRET usually uses a lanthanide donor and a delayed reading to cut background.

In data set [2] the target is T4, hPD-1/hPD-L1 immune checkpoint (hPD-L1 aAPCs and Jurkat hPD-1 effector cells) (Homo sapiens, UniProt Q9NZQ7).
T4 construct: host or cells: CHO K-1 (hPD-L1 aAPCs) and Jurkat T cells (hPD-1 effector cells)
The experiment in a line: hPD-1/hPD-L1 immune checkpoint blockade cell-based assay (Promega Blockade Bioassay).

The target in data set [3] is T5, human PD-L1 (Homo sapiens, UniProt Q9NZQ7).
T5 construct: hPD-L1 residues, 18–134, C-terminal His-tag; His-tag (C); made in house; host or cells: Escherichia coli BL21 (DE3)
The experiment in a line: MicroScale Thermophoresis (MST) binding assay, human PD-L1. The conditions noted are these: hPD-L1.

The target in the next data set is T6, murine PD-L1 (Mus musculus, UniProt Q9EP73).
T6 construct: mPD-L1 residues, 19–134; made in house; host or cells: Escherichia coli BL21 (DE3)
Kind of data set: MicroScale Thermophoresis (MST) binding assay, murine PD-L1. The conditions noted are these: mPD-L1. In general terms: In MST a laser heats a spot of the sample, and binding alters the fluorescence response.

Data set [4] concerns the target T5, human PD-L1. The experiment in a line: 1H NMR binding assay. The conditions noted are these: molar ratio 1:1. As for the experimental part:
The direct binding of the most prominent compounds 2k and 3d to the human PD-L1 was also confirmed with a ^1H NMR method (Figure S3).
Figure S2 ELISA assay results.
High-binding 96 well plates (Thermo Scientific, cat. 439454) were coated with 1.2 μg/ml (50 μL/well) of Fc-tagged human PD-1 (Recepton Sp. z o.o., cat. R1-001-1) and incubated overnight at 4 ◦C. The plates were warmed to room temperature, washed with wash buffer (1 x PBS, 0.05% Tween 20, pH 7.4) and blocked with 1 % BSA in 1 x PBS, pH 7.4 for 2 h. Standard curve was generated with 0.02 – 50 ug/mL His- and Fc- tagged human PD-L1 (Recepton Sp. z o.o., cat. R1-002-1). […] The bound ligand was detected with the addition of 50 μL/well biotinylated Anty-His antibody (Southern Biotech, cat. 4603-08) followed by 1 h incubation, wash steps and addition of 50 μL/well streptavidin-HRP (Thermo Scientific, cat. 21126). […] The absorbance readings were made on Tecan Spark at the wavelength 450 nm and the reference wavelength 655 nm. IC50 was calculated based on the Δ((A450-A655) from sample – (A450-A655) from background) readings fitted in the plot using a Hill’s […]
For NMR measurements, the buffer was exchanged by gel filtration to PBS pH 7.4. […] All spectra were recorded at 300 K using a Bruker Avance III 600 MHz spectrometer. […]

Another data set concerns primary human T cells. Kind of data set: Flow cytometry of activation markers on primary T cells (PBMCs on hPD-L1 aAPCs). Conditions: 48 h. The class given is cell-based. As for the experimental part:
The biological activity of the compound 2k was further verified on the primary T cells. For this, peripheral blood mononuclear cells (PBMCs) isolated from the blood of healthy donors were contacted with hPD-L1 aAPCs to provide TCR-mediated activation of T cells and the engagement of PD-1/PD-L1 immune checkpoint. The cells were then analyzed with flow cytometry following the gating for CD4^+ and CD8^+ T cells. The blockade of the PD-1/PD-L1 immune checkpoint was expected to increase the activation of T cells. In the experiment, atezolizumab and compound 2k were used. […] Because the prolonged activation of T cells leads to the increase of the expression of immune checkpoint molecules,[30] we have monitored the expression of PD-1 protein itself as an indicator of the late T cell activation and exhaustion. […] This confirms the bioactivity of the compound 2k in the context of primary T cells.
Blood samples from healthy donors were purchased from the Regional Center of Blood Donation and Blood Therapy in Krakow. PBMCs were isolated by a density gradient centrifugation using Pancoll human separating solutions (PAN-Biotech) and then resuspended in RPMI 1640 medium (Biowest) containing 10% FBS (Biowest).
PBMCs were added to the preseeded aAPCs at the density of 400 000 cells/well and incubated in the presence of compound 2k, DMSO, and with or without atezolizumab (5 μg/mL) as an anti-PD-L1 monoclonal antibody. After 48 h, cells were detached using TrypLe Select Enzyme (Thermo Fisher Scientific), collected into 5 mL round-bottom tubes, and washed with flow cytometry staining buffer (Thermo Fisher Scientific). For flow cytometry analysis, cells were stained using monoclonal antibodies: anti-CD69-APC, anti-CD4-FITC, anti-CD8-BV510, and anti-PD1-PECy7 (Becton Dickinson, BD). Following 20 min of incubation at room temperature, cells were washed, resuspended in PBS, and analyzed using a FACSCanto II flow cytometer (BD) and FACSDiva software (BD). The data analysis was carried out with FACSuite software (BD).

T3 sequence (Q9NZQ7 19-238 limits assumed, one chain of several): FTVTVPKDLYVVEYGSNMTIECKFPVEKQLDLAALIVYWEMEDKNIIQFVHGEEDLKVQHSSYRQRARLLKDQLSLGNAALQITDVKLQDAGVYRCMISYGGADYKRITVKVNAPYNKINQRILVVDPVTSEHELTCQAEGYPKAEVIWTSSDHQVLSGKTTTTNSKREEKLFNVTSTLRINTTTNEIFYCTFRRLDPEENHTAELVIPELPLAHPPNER
T4 sequence (Q9NZQ7 19-290): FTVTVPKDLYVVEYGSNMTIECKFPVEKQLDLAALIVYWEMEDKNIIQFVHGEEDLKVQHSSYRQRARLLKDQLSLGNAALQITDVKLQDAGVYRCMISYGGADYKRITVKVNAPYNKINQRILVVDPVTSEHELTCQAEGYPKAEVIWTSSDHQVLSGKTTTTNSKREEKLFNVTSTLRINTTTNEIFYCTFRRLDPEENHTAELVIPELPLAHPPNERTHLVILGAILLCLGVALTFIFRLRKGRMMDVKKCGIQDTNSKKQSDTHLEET
T6 sequence (Q9EP73 19-134): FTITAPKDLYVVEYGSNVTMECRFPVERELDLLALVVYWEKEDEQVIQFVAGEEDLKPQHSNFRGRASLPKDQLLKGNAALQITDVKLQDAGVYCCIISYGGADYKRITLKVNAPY
T5 sequence (Q9NZQ7 18-134): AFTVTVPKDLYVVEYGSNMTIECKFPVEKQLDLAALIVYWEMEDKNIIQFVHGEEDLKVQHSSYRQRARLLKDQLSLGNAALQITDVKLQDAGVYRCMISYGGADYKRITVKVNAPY
T1 sequence (Q9NZQ7 18-134, stated change not applied, one chain of several): as the sequence (Q9NZQ7 18-134) above
T2 sequence (Q9NZQ7 18-134, one chain of several): as the sequence (Q9NZQ7 18-134) above

Take `BrCc1cccc(-c2ccccc2)c1Br` [1a, 2-bromo-3-(bromomethyl)-1,1′-biphenyl]: the “dissociation of the mutant N66A-PD-1/PD-L1 complex” value on N66A-PD-1/PD-L1 complex is “capable of dissociating; also recorded: all PD-1 peaks are restored; also recorded: dissociated”. The “dissociation of the wtPD-1/PD-L1 complex” value at wtPD-1/PD-L1 complex is “not able to dissociate”.
In turn, `OCc1cccc(-c2ccccc2)c1-c1ccccc1` [1b, [1,1′:2′,1″-terphenyl]-3′-ylmethanol] gave a half-maximal inhibitory concentration (IC50) in data set [1] of over 100 µM.
Consider `OCc1cccc(-c2ccccc2)c1F` [1c], for which the “dissociation of the mutant N66A-PD-1/PD-L1 complex” value on N66A-PD-1/PD-L1 complex is “capable of dissociating; also recorded: all PD-1 peaks are restored; also recorded: dissociated”. Further, at wtPD-1/PD-L1 complex, the “dissociation of the wtPD-1/PD-L1 complex” value is on record as “not potent enough to dissociate”.
Consider `O=C(NCCCN1CCOCC1)c1ccc(OCc2cccc(-c3ccccc3)c2Br)c(Br)c1` [2f, 4-(3-(3-Bromo-4-((2-bromo-[1,1′-biphenyl]-3-yl)methoxy)benzamido)propyl)morpholin-4-ium Hydrochloride], for which, in data set [1], the IC50 turned out to be 13.2 ± 0.15 µM.
The compound `CC(=O)NCCNCc1ccc(OCc2cccc(-c3ccccc3)c2Br)c(Br)c1` [2g, N-(2-((3-Bromo-4-((2-bromo-[1,1′-biphenyl]-3-yl)methoxy)benzyl)amino)ethyl)acetamide] came in with an IC50 in data set [1] of 0.0122 ± 0.0002 µM. For the same compound, the “toxicity of the compound observed above concentration” value in data set [2] (EC50 estimated on partial data because of it) is listed as “above 10 μM”. In data set [2] (cell based assay, Table S1), this compound gave an EC50 of 6.7 ± 1.1 µM. At human PD-L1 [3], the Kd was 3.17 nM and 3.2 nM. Further, the “MST KD” value on murine PD-L1 is listed as “no activity”.
`O=C(O)[C@@H]1CCCCN1Cc1ccc(OCc2cccc(-c3ccccc3)c2Br)cc1` [2h, (S)-1-(4-((2-Bromo-[1,1′-biphenyl]-3-yl)methoxy)benzyl)piperidine-2-carboxylic Acid] showed a half-inhibitory concentration (IC50) in data set [1] of 0.522 ± 0.0005 µM.
As to `Cc1cc(CN2CCCC[C@H]2C(=O)O)ccc1OCc1cccc(-c2ccccc2)c1Br` [2i, (S)-1-(4-((2-Bromo-[1,1′-biphenyl]-3-yl)methoxy)-3-methylbenzyl)piperidine-2-carboxylic Acid], on murine PD-L1, the “MST KD” value is listed as “no activity”.
`COc1cc(CN2CCCC[C@H]2C(=O)O)ccc1OCc1cccc(-c2ccccc2)c1Br` [2j, (S)-1-(4-((2-Bromo-[1,1′-biphenyl]-3-yl)methoxy)-3-methoxybenzyl)piperidine-2-carboxylic Acid] displayed an IC50 in data set [1] of 0.204 ± 0.0064 µM. Further, the concentration for a half-maximal effect (EC50) in data set [2] (cell based assay, Table S1) was over 500 µM.
On to `N#Cc1cc(COc2cc(OCc3cccc(-c4ccccc4)c3Br)c(Cl)cc2CN2C[C@@H](O)C[C@H]2C(=O)O)ccn1` [3d], for which, on human PD-L1 [4], the “direct binding to hPD-L1 (1H NMR)” value is on record as “caused flattening of 2D spectra characteristic for the dimerization; also recorded: caused a characteristic dimerization of hPD-L1”. The “solubility in DMSO/water conditions” value in data set [2] (disallowed data collection for the two highest concentrations) is reported as “solubility problems”.
In turn, `O=C(O)[C@@H]1C[C@H](O)CN1Cc1ccc(OCc2cccc(-c3ccccc3)c2-c2ccccc2)c(Br)c1` [4f, (2S,4S)-1-(4-([1,1′:2′,1″-Terphenyl]-3′-ylmethoxy)-3-bromobenzyl)-4-hydroxypyrrolidine-2-carboxylic Acid] displayed an IC50 in data set [1] of 49.1 ± 0.15 µM.
Same read-out and setting: the same measure for `N#Cc1ccc(-c2cccc(COc3ccc(C=O)cc3Br)c2Br)cc1` [4g, 2′-Bromo-3′-((2-bromo-4-formylphenoxy)methyl)-[1,1′-biphenyl]-4-carbonitrile]: 29.4 ± 0.45 µM.
Consider `Cc1c(COc2cc(OCc3cccc(C#N)c3)c(CN3C[C@H](O)C[C@@H]3C(=O)O)cc2Cl)cccc1-c1ccc2c(c1)OCCO2` [BMS-1166, reference compound], for which the “MST KD” value at murine PD-L1 is reported as “no activity”.
In data set [2] (reference antibody, Hill fit), “Durvalumab: a clinically relevant PD-L1-blocking antibody; positive control anti-hPD-L1 monoclonal antibody [reference compound]” yielded an EC50 of 0.0002 ± 6e-05 µM.
Consider “atezolizumab: an anti-PD-L1 therapeutic antibody [reference compound]”, for which, in the data set with primary human T cells, the “expression of PD-1 receptor on the surface of CD4+ and CD8+ T cells” value is on record as “significant increase”; the “expression of early T-cell activation marker CD69” value was “Neither of the two molecules was able to increase”.
